In data set [1] the target is T1, human GIP receptor (Homo sapiens, UniProt P48546).
T1 construct: expressed in transfected cells; crude membranes
T1 sequence (P48546 22-466): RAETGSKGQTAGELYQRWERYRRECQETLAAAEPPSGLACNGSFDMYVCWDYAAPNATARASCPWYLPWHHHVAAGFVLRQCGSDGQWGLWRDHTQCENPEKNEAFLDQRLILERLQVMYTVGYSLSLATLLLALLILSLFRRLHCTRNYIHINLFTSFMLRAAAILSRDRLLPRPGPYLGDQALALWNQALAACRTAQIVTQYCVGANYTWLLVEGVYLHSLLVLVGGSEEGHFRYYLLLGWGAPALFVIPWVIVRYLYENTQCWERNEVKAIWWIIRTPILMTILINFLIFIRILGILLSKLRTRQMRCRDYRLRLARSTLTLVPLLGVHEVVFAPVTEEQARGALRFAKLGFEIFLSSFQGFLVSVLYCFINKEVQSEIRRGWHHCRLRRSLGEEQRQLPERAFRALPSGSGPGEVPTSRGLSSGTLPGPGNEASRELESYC
Briefly: [125I]-GIP binding (SPA), human GIP receptor.

In data set [2] the target is human GLP-1 receptor (GLP-1R) (Homo sapiens, UniProt P43220). The experiment in a line: cAMP pharmacological functional assay in presence of casein, hGLP-1R. Type of data set: cell-based.
A short description of data set [3]: Proteolytic stability assay in 90% pig small intestinal fluid (pSIF). Format: in vitro ADME. Conditions: 90% pSIF, 37° C. Here is the method:
Peptides are diluted to a concentration of 0.4 mg/mL in 90% pig small intestinal fluid. After the mixing, 20 μL are immediately removed (time 0 for the time point of pre-incubation). The mixture is then incubated at 37° C. at 150 rpm. […] The sample is centrifuged at 20,000×g for 20 min at 4° C.
The data analysis is performed using MassLynx.

For data set [4], the target named is T2, gastric inhibitory peptide receptor (GIPR) (Homo sapiens, UniProt P48546).
T2 sequence (P48546 22-466): T1 sequence (P48546 22-466)
Briefly: cAMP pharmacological functional assay in presence of casein, hGIPR. Type of data set: cell-based.

For data set [5], the target named is T3, human Gcg receptor (Homo sapiens, UniProt P47871).
T3 construct: expressed in transfected cells; crude membranes
Briefly: [125I]-Glucagon binding (SPA), human Gcg receptor. Put shortly: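 Crude membranes from cells expressing the receptor, prepared by hypotonic lysis in 50 mM Tris HCl pH 7.5 with protease inhibitors, homogenization and differential centrifugation, were used in a WGA-bead SPA. Binding buffer: 25 mM HEPES pH 7.4, 2.5 mM CaCl2, 1 mM MgCl2, bacitracin, Tween-20.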

Data set [6] has as its target T4, human GLP-1R (Homo sapiens, UniProt P43220). The experiment in a line: GLP-1R HEK293 cell membrane [35S]GTPγS binding assay. Type of data set: biochemical. The arrangement: expressed in transfected cells; host or cells: HEK293 cells expressing human GLP-1R; membranes. The procedure, abridged: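 Agonist-driven Gαs activation read as [35S]GTPγS ([…]) binding to receptor-expressing HEK293 membranes, 30 min at room temperature, pH 7.4. Detection by anti-Gαs immunocapture on scintillation beads; EC50 derived from four-parameter logistic concentration-response fit.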
(In general: GTPγS resists hydrolysis and so accumulates on activated G proteins.)

Data set [7] concerns the target T4, human GLP-1R. The experiment in a line: [125I]-GLP-1 binding (SPA), human GLP-1 receptor. The arrangement: expressed in transfected cells; crude membranes. The procedure, abridged: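 Membranes: hypotonic lysis (50 mM Tris HCl, pH 7.5, protease inhibitors), Potter-Elvehjem homogenization, high-speed pellet (35000×g 1 h or 25000×g 30 min, 4° C.). Buffer: 25 mM HEPES pH 7.4, 2.5 mM CaCl2, 1 mM MgCl2. Four-parameter IC50 fit; Ki as geometric mean ± SEM.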

A short description of data set [8]: Body weight in diet-induced obese C57/B16 mice, 14-day treatment. Format: in vivo, C57/B16 diet-induced obese (DIO) male mice. Conditions: s.c., QD, DIO mice. Here is the method: C57/B16 diet-induced obese (DIO) male mice (Taconic, Germantown, NY) weighing 41-50 g are used. Animals are individually housed in a temperature-controlled (24° C.) facility with a 12 hour light/dark photoperiod (lights off at 10:00 AM and lights on at 10:00 PM), with free access to food and water. After 2 week acclimatization to the facility, mice are randomized to treatment groups (n=6/group) based on body weight so each group has similar starting mean body weight.
Mice are treated with either vehicle (40 mM Tris-HCl at pH 8.0) or several peptides between the dose ranges of 0.03 nmol/kg to 10 nmol/kg. Treatments are subcutaneously administered to ad libitum fed DIO mice 30-90 minutes prior to the onset of the dark cycle daily (QD) for 14 days. During the course of the study, body weight and food intake are monitored daily. […]
[formula] “0” dose group represents the vehicle-treated mice during each study. All data are expressed as mean±SEM of 5-6 mice per group. Statistical analyses are assessed by one-way ANOVA followed by Dunnett's multiple comparison test to compare treatment groups to ‘0’, dose (vehicle). *Significant differences are identified at p<0.05. Body weight change after treatment with Example compounds after 15 days. “Δ from vehicle” refers to difference between body weight at day 15 between test and vehicle groups. “% n change” refers to percent decrease in body weight between days 1 and 15 in test groups. Percent decrease in body weight for animals receiving vehicle is recorded, and is less than about 100 in each study.

Setting [9] is: read-out: hGIPR Ki, nM (SEM, n).
The mark [10] stands for this setting: HEK293 cells expressing hGLP-1R, 0.1% Casein, geometric mean, read-out: hGLP1R cAMP Rel EC50 nM (SEM, n).
Setting [11] is: HEK293 cells expressing hGIPR, 0.1% Casein, geometric mean, read-out: hGIPR cAMP Rel EC50 nM (SEM, n).
The mark [12] stands for this setting: read-out: hGLcgR Ki, nM (SEM, n).
[13] abbreviates: read-out: hGLP1R Ki, (nM) (SEM, n).

Read-outs that look alike come from different tables or passages of the source. Numbered stars: 1 amine (or outer) side, 2 acyl side, 3 side chain; on linkers, the order of the positions; unused ones are H or OH. Square brackets hold non-standard residues; d marks the D form. Side chains are listed from the residue outwards. Peptide text beside a SMILES is read from it. * marks the point of attachment. C20 diacid = O=C(O)CCCCCCCCCCCCCCCCCCC(=O)*; C18 diacid = O=C(O)CCCCCCCCCCCCCCCCC(=O)*; αMePhe(2-F) = C[C@](N)(Cc1ccccc1F)C(=O)O; γGlu = O=C(O)[C@H](CCC(=O)[*:2])N[*:1]; αMeF = C[C@](N)(Cc1ccccc1)C(=O)O; αMeL = CC(C)C[C@](C)(N)C(=O)O; AEEA = NCCOCCOCC(=O)O; Aib = CC(C)(N)C(=O)O

T3 sequence (P47871 26-477): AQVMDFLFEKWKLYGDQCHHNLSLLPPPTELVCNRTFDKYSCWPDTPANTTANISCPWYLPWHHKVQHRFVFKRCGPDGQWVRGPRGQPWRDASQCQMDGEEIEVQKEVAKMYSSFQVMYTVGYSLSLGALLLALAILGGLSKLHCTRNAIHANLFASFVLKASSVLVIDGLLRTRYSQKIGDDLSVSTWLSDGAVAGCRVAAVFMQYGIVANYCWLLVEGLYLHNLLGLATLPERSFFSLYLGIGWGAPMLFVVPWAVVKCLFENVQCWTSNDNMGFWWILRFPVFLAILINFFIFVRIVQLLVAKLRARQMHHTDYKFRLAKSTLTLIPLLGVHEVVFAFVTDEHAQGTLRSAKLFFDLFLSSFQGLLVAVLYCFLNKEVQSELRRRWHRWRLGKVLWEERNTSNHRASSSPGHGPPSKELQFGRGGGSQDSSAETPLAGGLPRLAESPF
T4 sequence (P43220 24-463): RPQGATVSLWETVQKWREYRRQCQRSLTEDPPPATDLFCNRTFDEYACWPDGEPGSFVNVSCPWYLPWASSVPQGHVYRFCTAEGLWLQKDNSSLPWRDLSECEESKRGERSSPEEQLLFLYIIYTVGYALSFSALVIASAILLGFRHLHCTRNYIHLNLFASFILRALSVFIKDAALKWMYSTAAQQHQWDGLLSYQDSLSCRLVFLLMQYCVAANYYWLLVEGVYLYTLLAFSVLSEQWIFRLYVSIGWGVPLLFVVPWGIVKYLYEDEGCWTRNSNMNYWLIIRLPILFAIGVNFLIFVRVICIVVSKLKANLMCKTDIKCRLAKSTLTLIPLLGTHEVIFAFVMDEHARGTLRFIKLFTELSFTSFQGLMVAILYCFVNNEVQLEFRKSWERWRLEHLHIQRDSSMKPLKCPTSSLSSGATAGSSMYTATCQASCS
Chain of human GLP-1 receptor (GLP-1R) (P43220 24-463): as above

Take `CC[C@H](C)[C@H](NC(=O)[C@H](CC(C)C)NC(=O)[C@](C)(Cc1ccc(O)cc1)NC(=O)[C@@H](CCC(=O)O)NC(=O)[C@@H](NC(=O)[C@H](Cc1ccccc1)NC(=O)[C@H](CCC(=O)O)NC(=O)C(C)(C)NC(=O)[C@H](CCC(N)=O)NC(=O)[C@H](C)NC(=O)[C@H](CCCCNC(=O)COCCOCCNC(=O)COCCOCCNC(=O)CC[C@H](NC(=O)CCCCCCCCCCCCCCCCC(=O)O)C(=O)O)NC(=O)[C@H](CCCN)NC(=O)[C@H](CC(=O)O)NC(=O)[C@H](CC(C)C)NC(=O)[C@](C)(CC(C)C)NC(=O)[C@@H](NC(=O)[C@H](CO)NC(=O)[C@@H](NC(=O)[C@H](CC(=O)O)NC(=O)[C@H](CO)NC(=O)[C@@H](NC(=O)[C@](C)(Cc1ccccc1F)NC(=O)[C@@H](NC(=O)CNC(=O)[C@H](CCC(=O)O)NC(=O)C(C)(C)NC(=O)[C@@H](N)Cc1ccc(O)cc1)[C@@H](C)O)[C@@H](C)O)C(C)C)[C@@H](C)CC)[C@@H](C)CC)C(=O)N[C@@H](CCC(=O)O)C(=O)NCC(=O)NCC(=O)N1CCC[C@H]1C(=O)N[C@@H](CO)C(=O)N[C@@H](CO)C(=O)NCC(=O)N[C@@H](C)C(=O)N1CCC[C@H]1C(=O)N1CCC[C@H]1C(=O)N1CCC[C@H]1C(=O)N[C@@H](CO)C(N)=O` [Example 5]: the Ki (commonly the dissociation constant of the complex between target and ligand, obtained from inhibition or displacement) is 0.0611 nM in data set [1], 519 nM in data set [5] and 0.902 nM in data set [7]. Moreover, the EC50 (commonly the concentration giving half of the maximal effect) in data set [2] stood at 0.0164 nM; in data set [4] it was 0.0309 nM; in data set [6], 0.196 nM. Moreover, the “percentage of peptide not cleaved using pSIF” value in data set [3] (0 min) is reported as 100%. The remaining at 0.5 h, 0.4 mg/mL in data set [3] (pig, 90% pig small intestinal fluid (pSIF), 30 min, read-out: percentage of peptide not cleaved using pSIF) came to 76.9%. Also, in data set [3] (pig, 90% pig small intestinal fluid (pSIF), 45 min, read-out: percentage of peptide not cleaved using pSIF), the remaining at 0.75 h, 0.4 mg/mL turned out to be 56.8%. The remaining at 1 h, 0.4 mg/mL in data set [3] (pig, 90% pig small intestinal fluid (pSIF), 60 min, read-out: percentage of peptide not cleaved using pSIF) stood at 60.7%.
For the compound `CC[C@H](C)[C@H](NC(=O)[C@H](CC(C)C)NC(=O)[C@H](Cc1ccc(O)cc1)NC(=O)[C@H](CCC(=O)O)NC(=O)[C@@H](NC(=O)[C@H](Cc1ccccc1)NC(=O)[C@H](CCC(=O)O)NC(=O)C(C)(C)NC(=O)[C@H](CCC(N)=O)NC(=O)[C@H](C)NC(=O)[C@H](CCCCNC(=O)COCCOCCNC(=O)COCCOCCNC(=O)CC[C@H](NC(=O)CCCCCCCCCCCCCCCCC(=O)O)C(=O)O)NC(=O)[C@H](CCC(=O)O)NC(=O)[C@H](CC(=O)O)NC(=O)[C@H](CC(C)C)NC(=O)[C@](C)(CC(C)C)NC(=O)[C@@H](NC(=O)[C@H](CO)NC(=O)[C@H](Cc1ccc(O)cc1)NC(=O)[C@H](CC(=O)O)NC(=O)[C@H](CO)NC(=O)[C@@H](NC(=O)[C@](C)(Cc1ccccc1F)NC(=O)[C@@H](NC(=O)CNC(=O)[C@H](CCC(=O)O)NC(=O)C(C)(C)NC(=O)[C@@H](N)Cc1ccc(O)cc1)[C@@H](C)O)[C@@H](C)O)[C@@H](C)CC)[C@@H](C)CC)C(=O)N[C@@H](CCC(=O)O)C(=O)NCC(=O)NCC(N)=O` [Example 104] (H-Y[Aib]EGT[αMePhe(2-F)]TSDYSI[αMeL]LDEK([AEEA-AEEA-γGlu-C18 diacid])AQ[Aib]EFIEYLIEGG-NH2), the inhibition constant Ki was 0.0565 nM in data set [1] (setting [9]), 123 nM in data set [5] (setting [12]) and 3.91 nM in data set [7] (setting [13]). For the same compound, the EC50 in data set [2] (setting [10]) was found to be 0.0248 nM; in data set [4] (setting [11]), 0.0323 nM. Further, the “percent body weight after 14-day of treatment” value in data set [8] (dose 0.03 nmol/kg) was determined as 94.0%; in data set [8] (dose 0.1 nmol/kg), 94.1%; in data set [8] (dose 0.3 nmol/kg), 89.0%; in data set [8] (dose 1 nmol/kg), 82.7%; in data set [8] (dose 3 nmol/kg), 70.8%; in data set [8] (dose 10 nmol/kg) it was 71.3%.
`CC[C@H](C)[C@H](NC(=O)[C@H](CC(C)C)NC(=O)[C@H](Cc1ccc(O)cc1)NC(=O)[C@H](CCC(=O)O)NC(=O)[C@@H](NC(=O)[C@H](Cc1ccccc1)NC(=O)[C@H](CCC(=O)O)NC(=O)C(C)(C)NC(=O)[C@H](CCC(N)=O)NC(=O)[C@H](C)NC(=O)[C@H](CCCCNC(=O)COCCOCCNC(=O)COCCOCCNC(=O)CC[C@H](NC(=O)CCCCCCCCCCCCCCCCCCC(=O)O)C(=O)O)NC(=O)[C@H](CCCCN)NC(=O)[C@H](CC(=O)O)NC(=O)[C@H](CC(C)C)NC(=O)[C@](C)(CC(C)C)NC(=O)[C@@H](NC(=O)[C@H](CO)NC(=O)[C@H](Cc1ccc(O)cc1)NC(=O)[C@H](CC(=O)O)NC(=O)[C@H](CO)NC(=O)[C@@H](NC(=O)[C@](C)(Cc1ccccc1)NC(=O)[C@@H](NC(=O)CNC(=O)[C@H](CCC(=O)O)NC(=O)C(C)(C)NC(=O)[C@@H](N)Cc1ccc(O)cc1)[C@@H](C)O)[C@@H](C)O)[C@@H](C)CC)[C@@H](C)CC)C(=O)N[C@@H](CCC(=O)O)C(=O)NCC(=O)NCC(=O)N1CCC[C@H]1C(=O)N[C@@H](CO)C(=O)N[C@@H](CO)C(=O)NCC(N)=O` [Example 123] (H-Y[Aib]EGT[αMeF]TSDYSI[αMeL]LDKK([AEEA-AEEA-γGlu-C20 diacid])AQ[Aib]EFIEYLIEGGPSSG-NH2): the values for the Ki in data set [1] (setting [9]), in data set [5] (setting [12]) and in data set [7] (setting [13]) were 0.0469 nM, 80.1 nM and 1.31 nM, respectively. The EC50 was 0.0344 nM in data set [2] (setting [10]) and 0.0423 nM in data set [4] (setting [11]). The “percent body weight after 14-day of treatment” value in data set [8] (dose 0.03 nmol/kg) amounted to 94.7%; in data set [8] (dose 0.1 nmol/kg), 90.5%; in data set [8] (dose 0.3 nmol/kg) it was 86.5%; in data set [8] (dose 1 nmol/kg) it was 81.3%; in data set [8] (dose 3 nmol/kg), 75.1%; in data set [8] (dose 10 nmol/kg), 68.6%.

Source of the values: patent publication US12252524B2, “GIP/GLP1 co-agonist compounds” (Eli Lilly and Company, priority 2018, dated 2025).
